Experimental data taken from patent publication US10189859B2, “Derivatives of 6-(2,3-dichlorophenyl)-1,2,4-triazin-5-amine” (Nektar Therapeutics, priority 2013, dated 2019).
“And” between values parts separate entries of the source, which are not always exact repeats. Equal values may be shown once. Where a name gives a salt, the structure may show the parent alone. Read-outs that look alike come from different tables or passages of the source.

Legend:
[1] = Pharmacokinetics after intravenous or oral dosing, plasma LC/MS/MS; assay type: in vivo; conditions: fasted male Sprague Dawley rats
Description: Fasted, male Sprague Dawley rats were dosed intravenously or orally. Blood samples were collected at pre-determined time points and plasma was separated. Test article concentrations were determined in plasma by a LC/MS/MS method. Non compartmental analysis was performed to estimate the area under the plasma concentration vs. time curve (AUC). Clearance parameters (CL), bioavailabilities (F) and half-lives were calculated.

[2] = target: Nav1.7 sodium channels (human SCN9A gene) (Homo sapiens (Human), UniProt Q15858); assay: Automated patch clamp (IonWorks Barracuda) of Nav1.7 stably expressed in CHO cells; assay type: cell-based
Chain of Nav1.7 sodium channels (human SCN9A gene) (Q15858 whole entry): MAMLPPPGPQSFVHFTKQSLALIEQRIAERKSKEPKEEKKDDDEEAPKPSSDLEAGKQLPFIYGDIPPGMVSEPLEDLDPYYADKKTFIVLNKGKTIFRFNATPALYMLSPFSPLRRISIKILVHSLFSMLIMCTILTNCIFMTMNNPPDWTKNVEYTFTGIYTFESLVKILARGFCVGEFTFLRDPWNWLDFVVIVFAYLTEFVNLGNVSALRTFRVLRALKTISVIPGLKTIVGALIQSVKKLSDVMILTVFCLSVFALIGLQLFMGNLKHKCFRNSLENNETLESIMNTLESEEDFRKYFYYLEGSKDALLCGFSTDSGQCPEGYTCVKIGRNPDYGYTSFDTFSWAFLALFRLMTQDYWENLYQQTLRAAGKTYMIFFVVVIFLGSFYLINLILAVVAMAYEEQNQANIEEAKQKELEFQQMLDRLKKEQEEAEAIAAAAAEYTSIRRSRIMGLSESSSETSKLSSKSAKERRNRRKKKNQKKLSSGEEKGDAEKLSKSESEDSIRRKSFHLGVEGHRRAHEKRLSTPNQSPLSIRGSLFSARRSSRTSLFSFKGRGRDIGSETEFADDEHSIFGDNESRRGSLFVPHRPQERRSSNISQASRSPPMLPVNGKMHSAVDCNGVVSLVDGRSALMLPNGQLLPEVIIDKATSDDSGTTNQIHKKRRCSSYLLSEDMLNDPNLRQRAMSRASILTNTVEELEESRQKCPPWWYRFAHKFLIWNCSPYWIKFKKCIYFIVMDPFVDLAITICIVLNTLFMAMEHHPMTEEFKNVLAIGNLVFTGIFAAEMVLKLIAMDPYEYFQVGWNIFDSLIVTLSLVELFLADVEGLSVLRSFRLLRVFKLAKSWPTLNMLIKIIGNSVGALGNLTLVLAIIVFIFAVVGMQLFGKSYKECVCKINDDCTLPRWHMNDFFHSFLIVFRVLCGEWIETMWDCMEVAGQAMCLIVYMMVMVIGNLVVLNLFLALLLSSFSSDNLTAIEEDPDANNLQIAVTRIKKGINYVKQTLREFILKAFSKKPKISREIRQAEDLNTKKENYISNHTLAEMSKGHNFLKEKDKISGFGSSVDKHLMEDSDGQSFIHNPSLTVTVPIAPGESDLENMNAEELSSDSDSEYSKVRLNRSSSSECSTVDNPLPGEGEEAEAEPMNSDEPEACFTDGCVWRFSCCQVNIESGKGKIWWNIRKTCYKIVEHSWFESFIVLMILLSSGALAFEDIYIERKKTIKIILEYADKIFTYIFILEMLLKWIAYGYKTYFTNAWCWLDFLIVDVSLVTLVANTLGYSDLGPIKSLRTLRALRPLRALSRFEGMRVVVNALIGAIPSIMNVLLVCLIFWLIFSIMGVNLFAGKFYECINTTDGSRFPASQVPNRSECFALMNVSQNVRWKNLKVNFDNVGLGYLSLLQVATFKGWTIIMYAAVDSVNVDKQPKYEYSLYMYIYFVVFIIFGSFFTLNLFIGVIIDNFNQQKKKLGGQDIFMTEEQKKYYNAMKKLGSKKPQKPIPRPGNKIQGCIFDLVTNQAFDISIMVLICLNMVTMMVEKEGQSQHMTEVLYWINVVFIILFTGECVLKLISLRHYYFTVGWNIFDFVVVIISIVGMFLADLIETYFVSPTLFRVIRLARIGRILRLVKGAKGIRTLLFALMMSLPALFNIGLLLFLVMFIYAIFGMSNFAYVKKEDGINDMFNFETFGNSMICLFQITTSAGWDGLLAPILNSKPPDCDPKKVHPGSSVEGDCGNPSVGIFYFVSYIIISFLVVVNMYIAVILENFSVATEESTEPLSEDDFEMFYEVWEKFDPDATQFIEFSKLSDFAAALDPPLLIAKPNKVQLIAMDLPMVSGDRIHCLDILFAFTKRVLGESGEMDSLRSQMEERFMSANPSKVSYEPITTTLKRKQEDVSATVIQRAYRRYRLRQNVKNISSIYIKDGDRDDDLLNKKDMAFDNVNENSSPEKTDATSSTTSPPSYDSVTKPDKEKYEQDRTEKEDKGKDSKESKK
Description: The potencies of the compounds provided herein to block specific Na+ channels was measured using automated patch clamp electrophysiologically of Nav1.7 sodium channels (human SCN9A gene) stably expressed in CHO cells using the IonWorks™ Barracuda system. Currents were measured from the whole cell patch configuration. From a holding potential of −90 mV, membranes were subjected to a 200 ms pre-pulse to −120 mV, then pulsed to 0 mV to measure blockade of the tonic (resting) state. Inactivated state block was elicited by repolarization to −100 mV (20 ms pulse duration), followed by depolarization to 0 mV (20 ms pulse duration). Peak inward Na+ currents were measured in the presence of vehicle or various concentrations of the test compound to determine the percent block of current. Concentration-response relationships were used to calculate IC50 values for the illustrative compounds.

[3] = inactivated state block, CHO cells, read-out: Inactivated state IC50
[4] = tonic (resting) state block, CHO cells, read-out: Tonic state IC50
[5] = read-out: Inactivated state IC50

Row | exposure after oral dosing (qualitative ranking) [1] | IC50 [2, 3] | IC50 [2, 4] | Structure (SMILES) | further results
1 | best exposure after oral dosing |  |  | COC(=O)[C@@H]1C[C@@H](O)CN1c1nnc(-c2cccc(Cl)c2Cl)c(N)n1 [Compound 65, (2S,4R)-Methyl 1-(5-amino-6-(2,3-dichlorophenyl)-1,2,4-triazin-3-yl)-4-hydroxypyrrolidine-2-carboxylate] | pharmacokinetics (qualitative ranking of the compounds tested) [1]: most favorable pharmacokinetics
2 | best exposure after oral dosing |  |  | Nc1nc(N2CC(O)C2)nnc1-c1cccc(Cl)c1Cl [Compound 129, 3-N-(3-hydroxyazetin-1-yl) lamotrigine] | pharmacokinetics (qualitative ranking of the compounds tested) [1]: most favorable pharmacokinetics
3 | best exposure after oral dosing |  |  | Nc1nc(N2CC(O)(C(F)(F)F)C2)nnc1-c1cccc(Cl)c1Cl [Compound 165, 3-N-(3-hydroxy-3-trifluoromethyl)azetidinyl lamotrigine] | 
4 | best exposure after oral dosing |  |  | COC[C@@H](O)COC1CN(c2nnc(-c3cccc(Cl)c3Cl)c(N)n2)C1 [Compound 75, (R)-1-((1-(5-Amino-6-(2,3-dichlorophenyl)-1,2,4-triazin-3-yl)azetidin-3-yl)oxy)-3-methoxypropan-2-ol] | pharmacokinetics (qualitative ranking of the compounds tested) [1]: most favorable pharmacokinetics
5 | best exposure after oral dosing |  |  | Nc1nc(NCCOCCOCCOC(F)F)nnc1-c1cccc(Cl)c1Cl [Compound 57, 6-(2,3-Dichlorophenyl)-N^3-(2-(2-(2-(difluoromethoxy)ethoxy)ethoxy)ethyl)-1,2,4-triazine-3,5-diamine] | 
6 | best exposure after oral dosing |  |  | CC(CO)Nc1nnc(-c2cccc(Cl)c2Cl)c(N)n1 (stereo not shown) [Compound 182, 2-((5-amino-6-(2,3-dichlorophenyl)-1,2,4-triazin-3-yl)amino)propan-1-ol] | 
7 | best exposure after oral dosing |  |  | Nc1nc(N2CCN(C[C@@H](O)COCC(F)(F)F)CC2)nnc1-c1cccc(Cl)c1Cl [Compound 94, (R)-1-(4-(5-amino-6-(2,3-dichlorophenyl)-1,2,4-triazin-3-yl)-piperazin-1-yl)-3-(2,2,2-trifluoroethoxy)-propan-2-ol] | pharmacokinetics (qualitative ranking of the compounds tested) [1]: most favorable pharmacokinetics
8 | best exposure after oral dosing |  |  | Nc1nc(N2CCN(C3CCOCC3)CC2)nnc1-c1cccc(Cl)c1Cl [Compound 120, 3-N-(4-(tetrahydro-2H-pyran-4-yl)piperazin-1-yl) lamotrigine di HCl] | pharmacokinetics (qualitative ranking of the compounds tested) [1]: most favorable pharmacokinetics
9 | best exposure after oral dosing |  |  | COCCOCCOCC(C)Nc1nnc(-c2cccc(Cl)c2Cl)c(N)n1 (stereo not shown) [Compound 188, 6-(2,3-dichlorophenyl)-N3-(1-(2-(2-methoxyethoxy)ethoxy)propan-2-yl)-1,2,4-triazine-3,5-diamine.HCl] | 
10 | best exposure after oral dosing |  |  | CC(CO)(CO)Nc1nnc(-c2cccc(Cl)c2Cl)c(N)n1 [Compound 47, 2-((5-Amino-6-(2,3-dichlorophenyl)-1,2,4-triazin-3-yl)amino)-2-methylpropane-1,3-diol] | 
11 | best exposure after oral dosing |  |  | Nc1nc(N2CC(N)C2)nnc1-c1cccc(Cl)c1Cl [Compound 126, 5-amino-3-N-(3-aminoazetidinyl) lamotrigine diHCl salt] | 
12 | best exposure after oral dosing |  |  | COCCOCC(C)(CO)Nc1nnc(-c2cccc(Cl)c2Cl)c(N)n1 (stereo not shown) [Compound 49, 2-((5-Amino-6-(2,3-dichlorophenyl)-1,2,4-triazin-3-yl)amino)-3-(2-methoxyethoxy)-2-methylpropan-1-ol] | 
13 | best exposure after oral dosing |  |  | Nc1nc(N2CC(OCC(F)(F)F)C2)nnc1-c1cccc(Cl)c1Cl [Compound 99, 6-(2,3-dichlorophenyl)-3-(3-(2,2,2-trifluoroethoxy)azetidin-1-yl)-1,2,4-triazin-5-amine.HCl salt] | 
14 | best exposure after oral dosing |  |  | C[C@@H]1CN(c2nnc(-c3cccc(Cl)c3Cl)c(N)n2)C[C@H](C)N1 [Compound 118, 3-N-(3′,5′-dimethylpiperazin-1-yl) lamotrigine] | 
15 | best exposure after oral dosing |  |  | C[C@@H]1CN(c2nnc(-c3cc(F)cc(Cl)c3Cl)c(N)n2)C[C@H](C)N1 [Compound 119, 3-N-(3′,5′-dimethylpiperazin-1-yl) 5′-fluoro lamotrigine] | 
16 |  | > 300 µM | > 200 µM | COC[C@@H](O)CN1CCN(c2nnc(-c3cccc(Cl)c3Cl)c(N)n2)[C@H](CO)C1 [Compound 138, (S)-1-((S)-4-(5-amino-6-(2,3-dichlorophenyl)-1,2,4-triazin-3-yl)-3-(hydroxymethyl)piperazin-1-yl)-3-methoxypropan-2-ol] | 
17 |  | 160 µM | > 200 µM | C[S+]([O-])CCOCCNc1nnc(-c2cccc(Cl)c2Cl)c(N)n1 (stereo not shown) [Compound 187, 6-(2,3-dichlorophenyl)-N3-(2-(2-(methylsulfinyl)ethoxy)ethyl)-1,2,4-triazine-3,5-diamine] | 
18 |  | > 300 µM | > 200 µM | CC(=O)NCCOCCNc1nnc(-c2cccc(Cl)c2Cl)c(N)n1 [Compound 175, N-(2-(2-((5-amino-6-(2,3-dichlorophenyl)-1,2,4-triazin-3-yl)amino)ethoxy)ethyl)acetamide] | 
19 |  | 289 µM | > 200 µM | COC[C@@H](O)CN[C@@H]1CCN(c2nnc(-c3cccc(Cl)c3Cl)c(N)n2)C1 [Compound 159, (S)-1-(((R)-1-(5-amino-6-(2,3-dichlorophenyl)-1,2,4-triazin-3-yl)pyrrolidin-3-yl)amino)-3-methoxypropan-2-ol] | 
20 |  | < 50 µM | 192 µM | Nc1nc(N2CCN(C[C@H](O)COC3CCC3)CC2)nnc1-c1cccc(Cl)c1Cl [Compound 84, (2S)-1-{4-[5-Amino-6-(2,3-dichlorophenyl)-1,2,4-triazin-3-yl]piperazin-1-yl}-3-(cyclobutyloxy)propan-2-ol] | 
21 |  | > 300 µM | > 200 µM | COC[C@@H](O)CNC1CN(c2nnc(-c3cccc(Cl)c3Cl)c(N)n2)C1 [Compound 163, (S)-1-((1-(5-amino-6-(2,3-dichlorophenyl)-1,2,4-triazin-3-yl)azetidin-3-yl)amino)-3-methoxypropan-2-ol] | 
22 |  | < 50 µM | > 200 µM | Nc1nc(N2CCN(CC(F)(F)F)CC2)nnc1-c1cccc(Cl)c1Cl [Compound 87, 6-(2,3-dichlorophenyl)-3-(4-(2,2,2-trifluoroethyl)piperazin-1-yl)-1,2,4-triazin-5-amine] | 
23 |  | 149 µM | > 200 µM | Nc1nc(N2CCNCC23CC3)nnc1-c1cccc(Cl)c1Cl [Compound 141, 6-(2,3-dichlorophenyl)-3-(4,7-diazaspiro[2.5]octan-4-yl)-1,2,4-triazin-5-amine] | 
24 |  | 267 µM and 181 µM | > 200 µM | CS(=O)(=O)CCOCCNc1nnc(-c2cccc(Cl)c2Cl)c(N)n1 [Compound 176, 6-(2,3-dichlorophenyl)-N3-(2-(2-(methylsulfonyl)ethoxy)ethyl)-1,2,4-triazine-3,5-diamine] | 
25 |  | > 300 µM | > 200 µM | Nc1nc(NC2CNC2)nnc1-c1cccc(Cl)c1Cl [Compound 132, 3-N-(azetidin-3-yl) lamatrogine 2HCl salt] | 
26 |  |  |  | Nc1nc(N2CCN3CCOC[C@@H]3C2)nnc1-c1cccc(Cl)c1Cl [Compound 131, (S)-6-(2,3-dichlorophenyl)-3-(hexahydropyrazino[2,1-c][1,4]oxazin-8(1H)-yl)-1,2,4-triazin-5-amine di HCl salt] | IC50 [2, 5]: 187 µM; IC50 ([2]; read-out: Tonic state IC50): > 200 µM
27 |  | 51.4 µM | 147 µM | COC[C@@H](O)CN1CCC12CCCN(c1nnc(-c3cccc(Cl)c3Cl)c(N)n1)C2 (stereo partly drawn) [Compound 161, (2S)-1-(6-(5-amino-6-(2,3-dichlorophenyl)-1,2,4-triazin-3-yl)-1,6-diazaspiro[3.5]nonan-1-yl)-3-methoxypropan-2-ol] | 
28 |  |  |  | COC(=O)CNCCOCCNc1nnc(-c2cccc(Cl)c2Cl)c(N)n1 [Compound 199, methyl 2-((2-(2-((5-amino-6-(2,3-dichlorophenyl)-1,2,4-triazin-3-yl)amino)ethoxy)ethyl)amino)acetate] | IC50 [2, 5]: > 300 µM; IC50 ([2]; read-out: Tonic state IC50): > 200 µM
29 |  | > 300 µM | > 200 µM | COCCOCCOCC(O)CNc1nnc(-c2cccc(Cl)c2Cl)c(N)n1 (stereo not shown) [Compound 153, 1-((5-Amino-6-(2,3-dichlorophenyl)-1,2,4-triazin-3-yl)amino)-3-(2-(2-methoxyethoxy)ethoxy)propan-2-ol] | 

Row | Structure (SMILES) | exposure after oral dosing (qualitative ranking) [1] | IC50 [2, 3] | IC50 [2, 4] | further results
30 | CC(CS(=O)(=O)CCO)Nc1nnc(-c2cccc(Cl)c2Cl)c(N)n1 (stereo not shown) [Compound 93, 2-((2-((5-amino-6-(2,3-dichlorophenyl)-1,2,4-triazin-3-yl)amino)propyl)sulfonyl)ethanol] |  | > 300 µM | > 200 µM | 
31 | CC(C)(C)OCC(O)CN1CCN(c2nnc(-c3cccc(Cl)c3Cl)c(N)n2)C[C@H]1CO (stereo partly drawn) [Compound 136, 1-((S)-4-(5-amino-6-(2,3-dichlorophenyl)-1,2,4-triazin-3-yl)-2-(hydroxymethyl)piperazin-1-yl)-3-(tert-butoxy)propan-2-ol] |  | 86.6 µM and 92.7 µM | > 200 µM | 
